{
  "source": "BindingDB's records for doi:10.1021/jm201449n",
  "about": "(Cephalon, 2012)",
  "target": "Mitogen-activated protein kinase kinase kinase 7 (TAK1/MAP3K7) (Homo sapiens) (UniProt O43318)",
  "sequence (O43318 whole entry, looked up)": "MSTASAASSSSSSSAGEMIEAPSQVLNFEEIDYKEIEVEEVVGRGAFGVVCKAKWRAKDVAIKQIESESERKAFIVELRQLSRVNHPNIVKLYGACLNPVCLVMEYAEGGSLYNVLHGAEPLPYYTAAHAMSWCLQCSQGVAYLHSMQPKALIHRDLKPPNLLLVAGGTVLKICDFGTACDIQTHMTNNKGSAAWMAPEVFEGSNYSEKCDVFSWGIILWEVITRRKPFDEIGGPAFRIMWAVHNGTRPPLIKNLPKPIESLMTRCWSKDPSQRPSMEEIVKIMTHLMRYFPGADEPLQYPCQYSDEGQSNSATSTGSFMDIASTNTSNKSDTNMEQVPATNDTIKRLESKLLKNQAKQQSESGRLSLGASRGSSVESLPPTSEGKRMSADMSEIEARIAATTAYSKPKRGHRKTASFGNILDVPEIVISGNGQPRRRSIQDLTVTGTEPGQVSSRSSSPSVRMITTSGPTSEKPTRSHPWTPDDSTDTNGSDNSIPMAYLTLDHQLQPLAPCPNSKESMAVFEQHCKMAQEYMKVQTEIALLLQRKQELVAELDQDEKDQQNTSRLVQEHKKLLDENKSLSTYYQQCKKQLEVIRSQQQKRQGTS",
  "experiment": "Inhibition of human TAK1 using ATP as substrate",
  "data": [
    {"smiles": "CC(C)Cn1c2ccc(Nc3ncccn3)cc2c2c3c(c4c(c21)CCc1nn(C)cc1-4)C(=O)NC3", "note": "[CEP-11981]", "values": [
      {"measurement": "IC50", "value": 14, "unit": "nM"}
    ]}
  ]
}
